Test results: patent US20180327367A1, “MACROCYCLIC BROAD SPECTRUM ANTIBIOTICS” (priority 2015, published 2018)
Values after ≈ are worked out from the molar mass of the structure shown. Where two headings read alike, the source gives them in different places.

Assays:
[1] = molecular target: T1, SpsB (Staphylococcus aureus signal peptidase) (Staphylococcus aureus, UniProt P0A070); assay: cell-based; format: biochemical; details: SpsB IC50, whole-cell S. aureus (USA300 background, overexpressing SpsB) as SpsB source; fluorogenic peptide substrate, kinetic read 30 min
T1 construct: This assay uses a suspension of Staphylococcus aureus cells as a source of SpsB instead of recombinant SpsB protein; endogenous in cells; host or cells: S. aureus, USA300 background, overexpressing SpsB (whole-cell suspension from frozen pellets)
Outline: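 Whole S. aureus cells (USA300, overexpressing SpsB) in PBS with MgCl2, CaCl2 and 0.1% Tween-80 served as enzyme source, mixed with 20 μM stock of (Dabcyl)βAla-KPAKAAE(Edans) substrate before use. Fluorescence (ex 340/em 490 nm) read kinetically over 30 min. IC50 from reaction rate versus 11-point inhibitor concentration.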

[2] = tested on: Escherichia coli MC4100 harboring the IMP4213 (E. coli IMP); assay: microbe, parasite or virus in culture; format: cell-based; details: Escherichia coli, 22 h
Outline: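 Colonies grown 20 hours at 35° C were suspended in cation-adjusted Mueller Hinton Broth with 0.002% Tween-80. Cells were then added to 2-fold compound dilutions starting at 4 or 0.5 μg/mL, at OD600 0.0005.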

[3] = tested on: Methicillin Resistant Staphylococcus aureus strain USA 300, NRS384; assay: Minimum inhibitory concentration, broth micro-dilution (CLSI), S. aureus; format: cell-based; details: Staphylococcus aureus, MRSA / NRS 384 / USA300, 22 h, read-out: MIC (μg/mL) S. aureus
Outline: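 Ten-point 2-fold series began at 4 μg/mL in protocol 2 and 0.5 μg/mL in protocol 3, in cation-adjusted MHB plus 0.002% Tween-80. Bacteria added to OD600 0.0005 final and incubated at 35° C for 22 hours per CLSI microdilution.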

[4] = tested on: Escherichia coli ATCC 25922; assay: Minimum inhibitory concentration, broth micro-dilution (CLSI), E. coli; format: cell-based; details: Escherichia coli, ATCC25922, 22 h, read-out: MIC (μg/mL) E. coli
[5] = read-out: MIC (μg/mL) E. coli IMP, E. coli MC4100 IMP4213, increased outer-membrane permeability, 35° C., 22 hours
[6] = MRSA USA 300 NRS384, 35° C., 22 hours
[7] = E. coli ATCC 25922, 35° C., 22 hours

T1 sequence (P0A070 whole entry): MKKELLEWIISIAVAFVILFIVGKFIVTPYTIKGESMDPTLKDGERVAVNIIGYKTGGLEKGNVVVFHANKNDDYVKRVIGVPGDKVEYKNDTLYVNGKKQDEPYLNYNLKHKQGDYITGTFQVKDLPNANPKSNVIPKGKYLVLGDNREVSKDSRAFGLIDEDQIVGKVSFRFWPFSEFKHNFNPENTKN

| SMILES | IC50 [1] | MIC [2, 5] | MIC [3, 6] | MIC [4, 7] | MIC ([2]; read-out: MIC (μg/mL) E. coli IMP) | MIC [3] | MIC [4] |
| --- | --- | --- | --- | --- | --- | --- | --- |
| CCCCCCc1ccc(-c2ncc(C(=O)N[C@@H](CCN)C(=O)N(C)[C@@H]3C(=O)N[C@@H](C)C(=O)N[C@H](C(=O)NCC#N)Cc4ccc(OCCN)c(c4)-c4cc3ccc4OCCN)c(C)n2)cc1 [Compound 159] | 0.82 nM | < 0.0039 µg/mL | 0.063 µg/mL (≈ 0.0686 µM) | 0.13 µg/mL (≈ 0.142 µM) |  |  |  |
| Cc1nc(-c2ccc(C(C)C)cc2)ncc1C(=O)N[C@@H](CCN)C(=O)N(C)[C@@H]1C(=O)N[C@@H](C)C(=O)N[C@H](C(=O)NCC#N)Cc2ccc(OCCN)c(c2)-c2cc1ccc2OCCN [Compound 160] | 0.66 nM | 0.0039 µg/mL (≈ 0.00445 µM) | 0.047 µg/mL (≈ 0.0537 µM) | 0.13 µg/mL (≈ 0.148 µM) |  |  |  |
| CCCCCc1ccc(-c2ncc(C(=O)N[C@@H](CCN)C(=O)N(C)[C@@H]3C(=O)N[C@@H](C)C(=O)N[C@H](C(=O)NCC#N)Cc4ccc(OCCN)c(c4)-c4cc3ccc4OCCN)c(C)n2)cc1 [Compound 162] | 0.72 nM | 0.0025 µg/mL (≈ 0.00277 µM) | 0.023 µg/mL (≈ 0.0254 µM) | 0.063 µg/mL (≈ 0.0697 µM) |  |  |  |
| Cc1nc(-c2ccc(C(C)(C)C)cc2)ncc1C(=O)N[C@@H](CCN)C(=O)N(C)[C@@H]1C(=O)N[C@@H](C)C(=O)N[C@H](C(=O)NCC#N)Cc2ccc(OCCN)c(c2)-c2cc1ccc2OCCN [Compound 163] | 0.71 nM | 0.002 µg/mL (≈ 0.00225 µM) | 0.031 µg/mL (≈ 0.0348 µM) | < 0.063 µg/mL |  |  |  |
| CCCCOc1ccc(-c2ncc(C(=O)N[C@@H](CCN)C(=O)N(C)[C@@H]3C(=O)N[C@@H](C)C(=O)N[C@H](C(=O)NCC#N)Cc4ccc(OCCN)c(c4)-c4cc3ccc4OCCN)c(C)n2)cc1 [Compound 164] | 0.62 nM | 0.0039 µg/mL (≈ 0.0043 µM) | 0.047 µg/mL (≈ 0.0519 µM) | 0.13 µg/mL (≈ 0.143 µM) |  |  |  |
| CCCc1ccc(-c2nc(C)c(C(=O)N[C@@H](CCN)C(=O)N(C)[C@@H]3C(=O)N[C@@H](C)C(=O)N[C@H](C(=O)NCC#N)Cc4ccc(OCCN)c(c4)-c4cc3ccc4OCCN)c(C)n2)cc1 [Compound 165] | 0.61 nM | 0.0039 µg/mL (≈ 0.00438 µM) | 0.047 µg/mL (≈ 0.0528 µM) | 0.19 µg/mL (≈ 0.213 µM) |  |  |  |
| Cc1nc(-c2ccc(CC(C)C)cc2)sc1C(=O)N[C@@H](CCN)C(=O)N(C)[C@@H]1C(=O)N[C@@H](C)C(=O)N[C@H](C(=O)NCC#N)Cc2ccc(OCCN)c(c2)-c2cc1ccc2OCCN [Compound 166] | 0.78 nM | 0.016 µg/mL (≈ 0.0179 µM) | 0.063 µg/mL (≈ 0.0704 µM) | 0.5 µg/mL (≈ 0.559 µM) |  |  |  |
| Cc1cc(-c2ccc(CC(C)C)cc2)cnc1C(=O)N[C@@H](CCN)C(=O)N(C)[C@@H]1C(=O)N[C@@H](C)C(=O)N[C@H](C(=O)NCC#N)Cc2ccc(OCCN)c(c2)-c2cc1ccc2OCCN [Compound 168] | 0.8 nM | 0.031 µg/mL (≈ 0.0349 µM) | 0.063 µg/mL (≈ 0.0709 µM) | 0.75 µg/mL (≈ 0.844 µM) |  |  |  |
| Cc1nc(-c2ccc([Si](C)(C)C)cc2)ncc1C(=O)N[C@@H](CCN)C(=O)N(C)[C@@H]1C(=O)N[C@@H](C)C(=O)N[C@H](C(=O)NCC#N)Cc2ccc(OCCN)c(c2)-c2cc1ccc2OCCN [Compound 170] | 0.72 nM |  |  |  | 0.0085 µg/mL (≈ 0.00938 µM) | 0.073 µg/mL (≈ 0.0806 µM) | 0.13 µg/mL (≈ 0.143 µM) |
| Cc1nc(-c2ccc(C(F)(F)F)cc2)ncc1C(=O)N[C@@H](CCN)C(=O)N(C)[C@@H]1C(=O)N[C@@H](C)C(=O)N[C@H](C(=O)NCC#N)Cc2ccc(OCCN)c(c2)-c2cc1ccc2OCCN [Compound 171] | 0.72 nM | 0.0078 µg/mL (≈ 0.00865 µM) | 0.094 µg/mL (≈ 0.104 µM) | 0.5 µg/mL (≈ 0.554 µM) |  |  |  |
| CC(C)Cc1ccc(-c2ccc(C(=O)N[C@@H](CCN)C(=O)N(C)[C@@H]3C(=O)N[C@@H](C)C(=O)N[C@H](C(=O)NCC#N)Cc4ccc(OCCN)c(c4)-c4cc3ccc4OCCN)c(C(F)F)c2)cc1 [Compound 172] | 1 nM | 0.016 µg/mL (≈ 0.0173 µM) | 0.094 µg/mL (≈ 0.102 µM) | 0.19 µg/mL (≈ 0.206 µM) |  |  |  |
| Cc1cc(-c2ncc(CC(C)C)cn2)ccc1C(=O)N[C@@H](CCN)C(=O)N(C)[C@@H]1C(=O)N[C@@H](C)C(=O)N[C@H](C(=O)NCC#N)Cc2ccc(OCCN)c(c2)-c2cc1ccc2OCCN [Compound 174] | 0.91 nM | 0.026 µg/mL (≈ 0.0292 µM) | 0.17 µg/mL (≈ 0.191 µM) | 0.83 µg/mL (≈ 0.933 µM) |  |  |  |
| CCCCc1cnc(-c2ccc(C(=O)N[C@@H](CCN)C(=O)N(C)[C@@H]3C(=O)N[C@@H](C)C(=O)N[C@H](C(=O)NCC#N)Cc4ccc(OCCN)c(c4)-c4cc3ccc4OCCN)c(C)c2)nc1 [Compound 175] | 0.76 nM | 0.0078 µg/mL (≈ 0.00876 µM) | 0.13 µg/mL (≈ 0.146 µM) | 0.5 µg/mL (≈ 0.562 µM) |  |  |  |
| CCc1cnc(-c2ccc(C(=O)N[C@@H](CCN)C(=O)N(C)[C@@H]3C(=O)N[C@@H](C)C(=O)N[C@H](C(=O)NCC#N)Cc4ccc(OCCN)c(c4)-c4cc3ccc4OCCN)c(C)c2)nc1 [Compound 176] | 2.6 nM | 0.13 µg/mL (≈ 0.151 µM) | 1 µg/mL (≈ 1.16 µM) | 2 µg/mL (≈ 2.32 µM) |  |  |  |
| CC(C)CCc1ccc(-c2ccc(C(=O)N[C@@H](CCN)C(=O)N(C)[C@@H]3C(=O)N[C@@H](C)C(=O)N[C@H](C(=O)NCC#N)Cc4ccc(OCCN)c(c4)-c4cc3ccc4OCCN)cc2)cc1 [Compound 177] | 1.1 nM | 0.016 µg/mL (≈ 0.018 µM) | 0.094 µg/mL (≈ 0.106 µM) | 0.19 µg/mL (≈ 0.214 µM) |  |  |  |
| Cc1cc(-c2cnc(CC(C)C)cn2)ccc1C(=O)N[C@@H](CCN)C(=O)N(C)[C@@H]1C(=O)N[C@@H](C)C(=O)N[C@H](C(=O)NCC#N)Cc2ccc(OCCN)c(c2)-c2cc1ccc2OCCN [Compound 178] | 0.9 nM | 0.039 µg/mL (≈ 0.0438 µM) | 0.25 µg/mL (≈ 0.281 µM) | 1.5 µg/mL (≈ 1.69 µM) |  |  |  |
| Cc1cc(-c2cnc(CC(C)C)nc2)ccc1C(=O)N[C@@H](CCN)C(=O)N(C)[C@@H]1C(=O)N[C@@H](C)C(=O)N[C@H](C(=O)NCC#N)Cc2ccc(OCCN)c(c2)-c2cc1ccc2OCCN [Compound 179] | 1.8 nM | 0.0078 µg/mL (≈ 0.00876 µM) | 0.047 µg/mL (≈ 0.0528 µM) | 0.19 µg/mL (≈ 0.213 µM) |  |  |  |
| CC(C)Cc1cnc(-c2ccc(C(=O)N[C@@H](CCN)C(=O)N(C)[C@@H]3C(=O)N[C@@H](C)C(=O)N[C@H](C(=O)NCC#N)Cc4ccc(OCCN)c(c4)-c4cc3ccc4OCCN)c3ccccc23)nc1 [Compound 182] | 3.2 nM | 0.13 µg/mL (≈ 0.14 µM) | 0.5 µg/mL (≈ 0.54 µM) | 12 µg/mL (≈ 13 µM) |  |  |  |
| CCC(C)(C)c1ccc(-c2ncc(C(=O)N[C@@H](CCN)C(=O)N(C)[C@@H]3C(=O)N[C@@H](C)C(=O)N[C@H](C(=O)NCC#N)Cc4ccc(OCCN)c(c4)-c4cc3ccc4OCCN)c(C)n2)cc1 [Compound 183] | 0.62 nM | 0.0059 µg/mL (≈ 0.00653 µM) | 0.063 µg/mL (≈ 0.0697 µM) | 0.13 µg/mL (≈ 0.144 µM) |  |  |  |
| CCCCCCCCc1ccc(C(=O)N[C@@H](CCN)C(=O)N(C)[C@@H]2C(=O)N[C@@H](C)C(=O)N[C@H](C(=O)NCC#N)Cc3ccc(OCCN)c(c3)-c3cc2ccc3OCCN)c(F)c1 [Compound 184] | 0.89 nM | 0.012 µg/mL (≈ 0.0138 µM) | 0.094 µg/mL (≈ 0.108 µM) | 0.25 µg/mL (≈ 0.287 µM) |  |  |  |
| CCCCCCCCc1ccc(C(=O)N[C@@H](CCN)C(=O)N(C)[C@@H]2C(=O)N[C@@H](C)C(=O)N[C@H](C(=O)NCC#N)Cc3ccc(OCCN)c(c3)-c3cc2ccc3OCCN)c(SC)c1 [Compound 185] | 0.91 nM | 0.094 µg/mL (≈ 0.104 µM) | 0.19 µg/mL (≈ 0.211 µM) | 0.75 µg/mL (≈ 0.833 µM) |  |  |  |
| CCCCCCCCc1cnc(C(=O)N[C@@H](CCN)C(=O)N(C)[C@@H]2C(=O)N[C@@H](C)C(=O)N[C@H](C(=O)NCC#N)Cc3ccc(OCCN)c(c3)-c3cc2ccc3OCCN)c(C)c1 [Compound 187] | 0.74 nM | 0.047 µg/mL (≈ 0.0541 µM) | 0.063 µg/mL (≈ 0.0725 µM) | 2 µg/mL (≈ 2.3 µM) |  |  |  |
| CCCCCCCc1cc(C)c(C(=O)N[C@@H](CCN)C(=O)N(C)[C@@H]2C(=O)N[C@@H](C)C(=O)N[C@H](C(=O)NCC#N)Cc3ccc(OCCN)c(c3)-c3cc2ccc3OCCN)c(F)c1 [Compound 188] | 0.67 nM | 0.018 µg/mL (≈ 0.0206 µM) | 0.047 µg/mL (≈ 0.0539 µM) | 0.22 µg/mL (≈ 0.252 µM) |  |  |  |
